According to ChEMBL document CHEMBL1201862, “PubChem BioAssay data set” (2004):
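Cultured in 96-well plates, cells were exposed to test compound for 48 hours across five concentrations. Abbreviation: GI50, concentration required for 50% inhibition of growth.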 Activity calls are given as the source filed them. No stated cut-off is given here; in the data, active = GI50 up to about 1.1 µM and inactive = higher.

Columns and labels:
Assay in all cases: DTP human tumour cell line panel, 48 h
786-0 = system: 786-0
A549 = system: A549
COLO 205 = system: COLO 205
DMS-273 = system: DMS-273
EKVX = system: EKVX
HL-60 = system: HL-60
HT-29 = system: HT-29
Malme-3M = system: Malme-3M
NCI-H226 = system: NCI-H226
NCI-H460 = system: NCI-H460
OVCAR-3 = system: OVCAR-3
OVCAR-5 = system: OVCAR-5
SK-MEL-28 = system: SK-MEL-28
SNB-75 = system: SNB-75
UO-31 = system: UO-31
SW-620 = system: SW-620

| SMILES | GI50 (786-0) | GI50 (A549) | GI50 (COLO 205) | GI50 (DMS-273) | GI50 (EKVX) | GI50 (HL-60) | GI50 (HT-29) | GI50 (Malme-3M) | GI50 (NCI-H226) | GI50 (NCI-H460) | GI50 (OVCAR-3) | GI50 (OVCAR-5) | GI50 (SK-MEL-28) | GI50 (SNB-75) | GI50 (UO-31) | GI50 (SW-620) |
| --- | --- | --- | --- | --- | --- | --- | --- | --- | --- | --- | --- | --- | --- | --- | --- | --- |
| COC(=O)C(=O)C(C(=O)C=C(C)C)C(=O)C(=O)Nc1cc(C(F)(F)F)ccc1Cl (configuration not stated) | > 100 µM (inactive) | > 100 µM (inactive) | 52.2 µM (inactive) | 28.7 µM (inactive) | > 100 µM (inactive) | > 100 µM (inactive) | > 100 µM (inactive) | > 100 µM (inactive) | > 100 µM (inactive) | > 100 µM (inactive) | > 100 µM (inactive) | > 100 µM (inactive) | > 100 µM (inactive) | > 100 µM (inactive) | > 100 µM (inactive) | – |
| O=C(c1ccccc1)N1CCN2CCN=C(c3ccccc3)C21c1ccccc1 (configuration not stated) | > 100 µM (inactive) | 95.3 µM (inactive) | > 100 µM (inactive) | > 100 µM (inactive) | 70.8 µM (inactive) | 19.2 µM (inactive) | > 100 µM (inactive) | 35.5 µM (inactive) | 19.5 µM (inactive) | 94.8 µM (inactive) | 79.1 µM (inactive) | – | > 100 µM (inactive) | 51.3 µM (inactive) | 22.8 µM (inactive) | > 100 µM (inactive) |
| Cc1cc(N(CCC#N)CCC#N)ccc1/N=N/c1ccc(Br)cc1 | 13.2 µM (inactive) | 15.1 µM (inactive) | > 100 µM (inactive) | 17.8 µM (inactive) | 26.8 µM (inactive) | > 100 µM (inactive) | > 100 µM (inactive) | 53.6 µM (inactive) | 25.1 µM (inactive) | > 100 µM (inactive) | > 44.2 µM (inactive) | > 100 µM (inactive) | > 100 µM (inactive) | – | 27.7 µM (inactive) | > 48.6 µM (inactive) |
| COC1=C2C[C@H](O)C(C)C[C@@]2(OC)OC1=O (some centres not stated) | > 100 µM (inactive) | > 100 µM (inactive) | > 100 µM (inactive) | > 100 µM (inactive) | – | > 100 µM (inactive) | > 100 µM (inactive) | > 100 µM (inactive) | – | > 100 µM (inactive) | > 100 µM (inactive) | – | > 100 µM (inactive) | > 100 µM (inactive) | > 100 µM (inactive) | > 100 µM (inactive) |
| CC(=O)NC1=C(NCCN(C)C)C(=O)c2ccccc2C1=O | 18.1 µM (inactive) | 15 µM (inactive) | 9.95 µM (inactive) | 11.7 µM (inactive) | 32.9 µM (inactive) | 9.79 µM (inactive) | 13.8 µM (inactive) | 7.62 µM (inactive) | > 50 µM (inactive) | 12.8 µM (inactive) | 14.7 µM (inactive) | – | > 50 µM (inactive) | 25.5 µM (inactive) | > 50 µM (inactive) | 16 µM (inactive) |
| COc1cc([C@H]2c3cc4c(cc3[C@H](NCc3ccc(F)cc3)C3COC(=O)[C@H]32)OCO4)cc(OC)c1O (some centres not stated) | 1.84 µM (inactive) | – | 13.6 µM (inactive) | 1.3 µM (inactive) | 6.19 µM (inactive) | 0.815 µM (active) | 11.2 µM (inactive) | 3.79 µM (inactive) | 2.03 µM (inactive) | 0.352 µM (active) | 11.1 µM (inactive) | 8.91 µM (inactive) | 11 µM (inactive) | 2.08 µM (inactive) | 4.13 µM (inactive) | 1.87 µM (inactive) |
| COc1ccc(C2S/C(=C\c3cccc(OC)c3)C(=O)N2NC(=O)Cc2ccccc2)cc1 (configuration not stated) | > 100 µM (inactive) | > 100 µM (inactive) | > 100 µM (inactive) | > 100 µM (inactive) | – | > 100 µM (inactive) | > 100 µM (inactive) | > 100 µM (inactive) | 94.8 µM (inactive) | > 100 µM (inactive) | – | > 100 µM (inactive) | > 100 µM (inactive) | > 100 µM (inactive) | > 100 µM (inactive) | > 100 µM (inactive) |
| O=[N+]([O-])c1cccc(C2=NOC(C3CCCCC3)C2)c1 (configuration not stated) | > 100 µM (inactive) | > 100 µM (inactive) | > 100 µM (inactive) | > 100 µM (inactive) | – | > 100 µM (inactive) | 82 µM (inactive) | > 100 µM (inactive) | > 100 µM (inactive) | > 100 µM (inactive) | > 100 µM (inactive) | 92 µM (inactive) | > 100 µM (inactive) | > 100 µM (inactive) | > 100 µM (inactive) | > 100 µM (inactive) |
| CC1=CCC(O)C=CC(C)C(O)C(C)C=C(C)C(=O)c2c(O)c(C)cc3c2C(=O)C(N)=C(NC(=O)/C=C\C=C/C=CC(C)C(O)CC1=O)C3=O (configuration not stated) | > 100 µM (inactive) | > 100 µM (inactive) | 37.1 µM (inactive) | > 100 µM (inactive) | > 100 µM (inactive) | 0.292 µM (active) | > 100 µM (inactive) | 30.1 µM (inactive) | > 100 µM (inactive) | – | 64.4 µM (inactive) | > 100 µM (inactive) | > 100 µM (inactive) | > 100 µM (inactive) | 63 µM (inactive) | > 100 µM (inactive) |
